From the supplement of paper PMC8253809

Columns and labels:
[1] = tested on: DIPGX29 (H3.3 K27M diffuse intrinsic pontine glioma line); assay: EC50 (inflection of fitted growth-inhibition curve) (log10 M)
Outline: (§1)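 A pin tool was used to add a 10-point threefold dilution series (mean top concentration 35 μM), in triplicate, to patient-derived pHGG/DIPG cell lines and astrocyte controls seeded on 384-well plates coated with 1% Geltrex. After 7 days at 37 °C and 5% CO2 (3 days for iAstro), CellTiter-Glo luminescence was log2-transformed, normalised on each plate to % activity relative to negative (solvent) and positive control wells, and pooled. EC50 and maximal response (yFin) were read from the three- or four-parameter log-logistic fit with the lowest AICc.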

[2] = tested on: DIPGX37 (H3.3 K27M diffuse intrinsic pontine glioma line); assay: as above
Outline: as §1

[3] = tested on: DIPGX9 (diffuse intrinsic pontine glioma line); assay: as above
Outline: as §1

[4] = tested on: HABS (astrocyte control); assay: as above
Outline: as §1

[5] = tested on: HGGX39 (paediatric high-grade glioma line); assay: as above
Outline: as §1

[6] = tested on: HGGX42 (H3.3 G34R paediatric high-grade glioma line); assay: as above
Outline: as §1

[7] = tested on: SUDIPGIV (diffuse intrinsic pontine glioma line); assay: as above
Outline: as §1

[8] = tested on: SUDIPGXIII (diffuse intrinsic pontine glioma line); assay: as above
Outline: as §1

[9] = tested on: SUDIPGXIX (diffuse intrinsic pontine glioma line); assay: as above
Outline: as §1

[10] = tested on: SUDIPGXVII (diffuse intrinsic pontine glioma line); assay: as above
Outline: as §1

[11] = tested on: SUDIPGXXI (diffuse intrinsic pontine glioma line); assay: as above
Outline: as §1

[12] = tested on: iAstro (astrocyte control); assay: as above
Outline: as §1

[13] = tested on: DIPGX29; assay: maximal growth inhibition (yFin) relative to DMSO / staurosporine; higher = more efficacious
Outline: as §1

[14] = tested on: DIPGX37; assay: as above
Outline: as §1

[15] = tested on: DIPGX9; assay: as above
Outline: as §1

[16] = tested on: HABS; assay: as above
Outline: as §1

[17] = tested on: HGGX39; assay: as above
Outline: as §1

[18] = tested on: HGGX42; assay: as above
Outline: as §1

[19] = tested on: SUDIPGIV; assay: as above
Outline: as §1

[20] = tested on: SUDIPGXIII; assay: as above
Outline: as §1

[21] = tested on: SUDIPGXIX; assay: as above
Outline: as §1

[22] = tested on: SUDIPGXVII; assay: as above
Outline: as §1

[23] = tested on: SUDIPGXXI; assay: as above
Outline: as §1

[24] = tested on: iAstro; assay: as above
Outline: as §1

[25] = tested on: DIPGX29; assay: area under dose-response curve of % growth inhibition (log2 RLU vs DMSO / staurosporine), 1e-11 to 1e-4 M (% x log10 M); higher = more growth inhibition
Outline: (§2)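 A 10-point threefold dilution series, mean top concentration 35 μM, was applied in triplicate to patient-derived pHGG/DIPG lines and astrocytes on 1% Geltrex-coated 384-well plates for 7 days (3 days for iAstro) at 37 °C, 5% CO2. Per-plate % activity between solvent and positive controls was calculated from log2-transformed CellTiter-Glo luminescence. Area under the curve followed from the trapezoid rule on a log-logistic fit, or on a smoothing spline when the sigmoid fit failed.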

[26] = tested on: DIPGX37; assay: as above
Outline: as §2

[27] = tested on: DIPGX7 (H3.3 K27M diffuse intrinsic pontine glioma line); assay: as above
Outline: as §2

[28] = tested on: DIPGX9; assay: as above
Outline: as §2

[29] = tested on: HABS; assay: as above
Outline: as §2

[30] = tested on: HGGX2 (paediatric high-grade glioma line); assay: as above
Outline: as §2

[31] = tested on: HGGX39; assay: as above
Outline: as §2

[32] = tested on: HGGX42; assay: as above
Outline: as §2

[33] = tested on: HGGX6 (H3.3 G34R paediatric high-grade glioma line); assay: as above
Outline: as §2

[34] = tested on: SUDIPGIV; assay: as above
Outline: as §2

[35] = tested on: SUDIPGVI (diffuse intrinsic pontine glioma line); assay: as above
Outline: as §2

[36] = tested on: SUDIPGXIII; assay: as above
Outline: as §2

[37] = tested on: SUDIPGXIX; assay: as above
Outline: as §2

[38] = tested on: SUDIPGXVII; assay: as above
Outline: as §2

[39] = tested on: SUDIPGXXI; assay: as above
Outline: as §2

[40] = tested on: iAstro; assay: as above
Outline: as §2

[41] = tested on: HGGX2; assay: EC50 (inflection of fitted growth-inhibition curve) (log10 M)
Outline: as §1

[42] = tested on: HGGX2; assay: maximal growth inhibition (yFin) relative to DMSO / staurosporine; higher = more efficacious
Outline: as §1

[43] = tested on: DIPGX7; assay: EC50 (inflection of fitted growth-inhibition curve) (log10 M)
Outline: as §1

[44] = tested on: HGGX6; assay: as above
Outline: as §1

[45] = tested on: DIPGX7; assay: maximal growth inhibition (yFin) relative to DMSO / staurosporine; higher = more efficacious
Outline: as §1

[46] = tested on: HGGX6; assay: as above
Outline: as §1

SMILES	EC50 (log10 M) [2]	EC50 (log10 M) [4]	EC50 (log10 M) [9]	EC50 (log10 M) [10]	EC50 (log10 M) [11]	EC50 (log10 M) [12]	maximal growth inhibition [14] [%]	maximal growth inhibition [16] [%]	maximal growth inhibition [21] [%]	maximal growth inhibition [22] [%]	maximal growth inhibition [23] [%]	maximal growth inhibition [24] [%]	area under dose-response curve [25]	area under dose-response curve [26]	area under dose-response curve [27]	area under dose-response curve [28]	area under dose-response curve [29]	area under dose-response curve [30]	area under dose-response curve [31]	area under dose-response curve [32]	other results
CC(=O)Nc1cccc(-n2c(=O)n(C3CC3)c(=O)c3c(Nc4ccc(I)cc4F)n(C)c(=O)c(C)c32)c1 [TRAMETINIB]	-7.38	-6.03	-7.25	-6.86	-7.93	-4.63	88.3	78.3	106	47.3	91.1	32.2	176	299	29.4	334	162	96.1	74.7	51.4	EC50 (log10 M) [1]: -7.25; EC50 (log10 M) [3]: -7.37; EC50 (log10 M) [5]: -5.15; EC50 (log10 M) [6]: -4.9; EC50 (log10 M) [7]: -6.66; EC50 (log10 M) [8]: -7.34; maximal growth inhibition [13]: 54.2%; maximal growth inhibition [15]: 99.2%; maximal growth inhibition [17]: 53.5%; maximal growth inhibition [18]: 46.1%; maximal growth inhibition [19]: 26.3%; maximal growth inhibition [20]: 42.5%; area under dose-response curve [33]: 47.4; area under dose-response curve [34]: 66.9; area under dose-response curve [35]: 62.1; area under dose-response curve [36]: 173; area under dose-response curve [37]: 345; area under dose-response curve [38]: 135; area under dose-response curve [39]: 358; area under dose-response curve [40]: 19
O=C1NC(=O)C(c2cnc3ccccn23)=C1c1cn2c3c(cc(F)cc13)CN(C(=O)N1CCCCC1)CC2	-4.48	-7.93	-5.7	-4.97	-6.42	-5.34	52.1	50.7	24.1	22.3	112	45.8	42	24.1	6.78	64	199	27	70.9	72.1	EC50 (log10 M) [1]: -4.49; EC50 (log10 M) [3]: -4.66; EC50 (log10 M) [41]: -4.66; EC50 (log10 M) [5]: -6.42; EC50 (log10 M) [6]: -5.13; EC50 (log10 M) [7]: -8.3; maximal growth inhibition [13]: 49.3%; maximal growth inhibition [15]: 97.2%; maximal growth inhibition [42]: 40.7%; maximal growth inhibition [17]: 35.2%; maximal growth inhibition [18]: 60.7%; maximal growth inhibition [19]: 69.8%; area under dose-response curve [33]: 30.8; area under dose-response curve [34]: 300; area under dose-response curve [35]: 6.26; area under dose-response curve [36]: 6.37; area under dose-response curve [37]: 37; area under dose-response curve [38]: 16.9; area under dose-response curve [39]: 277; area under dose-response curve [40]: 66.3
CO[C@H]1C[C@@H]2CC[C@@H](C)[C@@](O)(O2)C(=O)C(=O)N2CCCC[C@H]2C(=O)O[C@H]([C@H](C)C[C@@H]2CC[C@@H](OC(=O)C(C)(CO)CO)[C@H](OC)C2)CC(=O)[C@H](C)/C=C(\C)[C@@H](O)[C@@H](OC)C(=O)[C@H](C)C[C@H](C)/C=C/C=C/C=C/1C [TEMSIROLIMUS]	-4.85	-4.85	-4.89	-4.96	-5.31	-4.98	89.6	104	96.2	24.2	124	94.3	113	123	71	198	88.3	86.5	91.8	121	EC50 (log10 M) [1]: -4.69; EC50 (log10 M) [43]: -4.94; EC50 (log10 M) [41]: -4.9; EC50 (log10 M) [44]: -4.79; maximal growth inhibition [13]: 116%; maximal growth inhibition [45]: 63.7%; maximal growth inhibition [42]: 77.4%; maximal growth inhibition [46]: 58%; area under dose-response curve [33]: 77.9; area under dose-response curve [34]: 83.2; area under dose-response curve [35]: 89; area under dose-response curve [36]: 53.9; area under dose-response curve [37]: 116; area under dose-response curve [38]: 40.1; area under dose-response curve [39]: 201; area under dose-response curve [40]: 101
CC[C@@]1(O)C(=O)OCc2c1cc1n(c2=O)Cc2cc3c(CN(C)C)c(O)ccc3nc2-1 [TOPOTECAN]	-4.78	-6.83	-5.74	-6.09	-8.44	-7.87	103	64.3	98.6	39	79	34.6	71	150	118	287	204	121	138	119	EC50 (log10 M) [3]: -6.06; EC50 (log10 M) [5]: -5.44; EC50 (log10 M) [6]: -7.08; EC50 (log10 M) [7]: -7.62; EC50 (log10 M) [8]: -5.85; maximal growth inhibition [15]: 96.3%; maximal growth inhibition [17]: 85.3%; maximal growth inhibition [18]: 37.5%; maximal growth inhibition [19]: 87.4%; maximal growth inhibition [20]: 26%; area under dose-response curve [33]: 75.7; area under dose-response curve [34]: 317; area under dose-response curve [35]: 71.8; area under dose-response curve [36]: 60; area under dose-response curve [37]: 267; area under dose-response curve [38]: 84.5; area under dose-response curve [39]: 351; area under dose-response curve [40]: 134
